Values joined by “and” are separate entries in the source; they are usually repeats but may differ in a detail not shown here. Identical values can stand only once. Toxic doses and inconclusive results are not listed.
Tested on: BDF1 mice, B16 melanoma ip, median survival T/C
Assay: NCI In Vivo Anticancer Drug Screen. Data for tumor model B16 Melanoma (intraperitoneal) in B6D2F1 (BDF1) mice
Conditions: endpoint: median survival time, higher = longer survival
How it was run: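 Compounds were tested in mice carrying transplantable tumors. Survival or tumor size was recorded, and each value is the treated-group measurement (T) divided by that of the vehicle-treated control group (C).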

[1] = dose: 6.25 mg/kg/injection, schedule: Q01DX009 (ip), vehicle: Klucel (hydroxypropylcellulose) (HPC)
[2] = dose: 12.5 mg/kg/injection, schedule: Q01DX009 (ip), vehicle: Klucel (hydroxypropylcellulose) (HPC)
[3] = dose: 25.0 mg/kg/injection, schedule: Q01DX009 (ip), vehicle: Klucel (hydroxypropylcellulose) (HPC)
[4] = dose: 50.0 mg/kg/injection, schedule: Q01DX009 (ip), vehicle: Klucel (hydroxypropylcellulose) (HPC)
[5] = dose: 200.0 mg/kg/injection, schedule: Q01DX009 (ip), vehicle: Klucel (hydroxypropylcellulose) (HPC)
[6] = dose: 100.0 mg/kg/injection, schedule: Q01DX009 (ip), vehicle: Klucel (hydroxypropylcellulose) (HPC)
[7] = dose: 5.0 mg/kg/injection, schedule: Q01DX009 (ip), vehicle: saline with Tween-80
[8] = dose: 50.0 mg/kg/injection, schedule: Q01DX009 (ip), vehicle: saline
[9] = dose: 100.0 mg/kg/injection, schedule: Q01DX009 (ip), vehicle: saline with Tween-80
[10] = dose: 200.0 mg/kg/injection, schedule: Q01DX009 (ip), vehicle: saline with Tween-80
[11] = dose: 400.0 mg/kg/injection, schedule: Q01DX009 (ip), vehicle: saline with Tween-80
[12] = dose: 50.0 mg/kg/injection, schedule: Q04DX003 (ip), vehicle: Klucel (hydroxypropylcellulose) (HPC)
[13] = dose: 100.0 mg/kg/injection, schedule: Q04DX003 (ip), vehicle: Klucel (hydroxypropylcellulose) (HPC)
[14] = dose: 50.0 mg/kg/injection, schedule: Q01DX009 (ip), vehicle: saline with Tween-80
[15] = dose: 12.5 mg/kg/injection, schedule: Q01DX009 (ip), vehicle: saline
[16] = dose: 100.0 mg/kg/injection, schedule: Q04DX003 (ip), vehicle: saline
[17] = dose: 25.0 mg/kg/injection, schedule: Q01DX009 (ip), vehicle: saline with Tween-80
[18] = dose: 100.0 mg/kg/injection, schedule: Q04DX003 (ip), vehicle: saline with Tween-80
[19] = dose: 400.0 mg/kg/injection, schedule: Q01DX009 (ip), vehicle: Klucel (hydroxypropylcellulose) (HPC)

CN(C1CCCCC1)C1CCCCC1
T/C [1]: 92 % of control
T/C [2]: 92 % of control
T/C [3]: 94 % of control

CC(Cc1ccccc1)NCCc1c2ccccc2nc2ccccc12 (stereo unspecified)
T/C [2]: 92 % of control
T/C [3]: 86 % of control and 100 % of control
T/C [4]: 90 % of control and 92 % of control
T/C [5]: 92 % of control

Cc1c(Cl)cccc1NC(=O)c1ccccc1C(=O)O
T/C [6]: 100 % of control
T/C [5]: 102 % of control

COC(=O)NC1CC=CCC1I (stereo unspecified)
T/C (dose: 12.5 mg/kg/injection, schedule: Q01DX009 (ip), vehicle: saline + alcohol): 109 % of control
T/C (dose: 25.0 mg/kg/injection, schedule: Q01DX009 (ip), vehicle: saline + alcohol): 97 % of control
T/C (dose: 50.0 mg/kg/injection, schedule: Q01DX009 (ip), vehicle: saline + alcohol): 88 % of control

Clc1ccc(Cl)c(NNc2cc(Cl)ccc2Cl)c1
T/C [3]: 101 % of control
T/C [4]: 95 % of control
T/C [6]: 101 % of control

CCCCNC(=O)Nc1cc(C)c(C)cc1C
T/C (dose: 50.0 mg/kg/injection, schedule: Q01DX009 (ip), vehicle: gum acacia): 95 % of control
T/C (dose: 100.0 mg/kg/injection, schedule: Q01DX009 (ip), vehicle: gum acacia): 99 % of control
T/C (dose: 200.0 mg/kg/injection, schedule: Q01DX009 (ip), vehicle: gum acacia): 91 % of control

COc1cccc(/C=C/[N+](=O)[O-])c1
T/C [7]: 98 % of control
T/C (dose: 10.0 mg/kg/injection, schedule: Q01DX009 (ip), vehicle: saline with Tween-80): 101 % of control
T/C (dose: 20.0 mg/kg/injection, schedule: Q01DX009 (ip), vehicle: saline with Tween-80): 94 % of control and 98 % of control

CNCCN(C)CCN(C)Cc1ccc(OC)cc1
T/C [8]: 103 % of control
T/C (dose: 100.0 mg/kg/injection, schedule: Q01DX009 (ip), vehicle: saline): 106 % of control
T/C (dose: 200.0 mg/kg/injection, schedule: Q01DX009 (ip), vehicle: saline): 106 % of control

c1ccc(-c2nn(-c3ccccc3)[n+](-c3cccc4ccccc34)n2)cc1
T/C (dose: 2.0 mg/kg/injection, schedule: Q01DX009 (ip), vehicle: saline with Tween-80): 97 % of control
T/C (dose: 4.0 mg/kg/injection, schedule: Q01DX009 (ip), vehicle: saline with Tween-80): 93 % of control

Cc1ccccc1OS(=O)(=O)c1cccc([N+](=O)[O-])c1
T/C [9]: 113 % of control
T/C [10]: 113 % of control
T/C [11]: 107 % of control

O=CNc1cc2ccccc2c2ccc3ccccc3c12
T/C [12]: 104 % of control
T/C [13]: 100 % of control

OC1CC2CC1C1C=CCC21 (stereo unspecified)
T/C [14]: 95 % of control
T/C [9]: 95 % of control
T/C [10]: 90 % of control

C1CC[N-]CC1.CC(=N\O)/C(C)=N/O.CC(=N\O)/C(C)=N/O.C[CH-]CC.[Co+2]
T/C [3]: 102 % of control
T/C [4]: 108 % of control

ClCCN(CCCl)c1ccc(/C=C/c2ccccc2)cc1
T/C [1]: 98 % of control
T/C [2]: 96 % of control
T/C [3]: 96 % of control
T/C [4]: 90 % of control
T/C [6]: 101 % of control

C=CCOCC(O)CNCCCOC (stereo unspecified)
T/C (dose: 6.25 mg/kg/injection, schedule: Q01DX009 (ip), vehicle: saline): 102 % of control
T/C [15]: 98 % of control
T/C (dose: 25.0 mg/kg/injection, schedule: Q01DX009 (ip), vehicle: saline): 98 % of control

Nc1ncc(CNc2ccc(C(=O)NC(CCC(=O)O)C(=O)O)cc2)c(N)n1 (stereo unspecified)
T/C (dose: 3.12 mg/kg/injection, schedule: Q01DX009 (ip), vehicle: Klucel (hydroxypropylcellulose) (HPC)): 107 % of control
T/C [1]: 103 % of control
T/C [2]: 111 % of control
T/C [3]: 114 % of control
T/C [4]: 108 % of control

CNNC(=O)NC
T/C (dose: 1.56 mg/kg/injection, schedule: Q01DX009 (ip), vehicle: saline): 87 % of control
T/C (dose: 3.12 mg/kg/injection, schedule: Q01DX009 (ip), vehicle: saline): 95 % of control
T/C [15]: 100 % of control

S=C(Cc1ccccc1)N1CCN(c2ccc(Cl)cc2)CC1
T/C [14]: 100 % of control
T/C [9]: 99 % of control
T/C [10]: 93 % of control

C=CCN1CCCC1=O
T/C [16]: 102 % of control
T/C (dose: 200.0 mg/kg/injection, schedule: Q04DX003 (ip), vehicle: saline): 95 % of control
T/C (dose: 400.0 mg/kg/injection, schedule: Q04DX003 (ip), vehicle: saline): 100 % of control

CC1OC(C)(C)OC1C(=O)O (stereo unspecified)
T/C (dose: 6.25 mg/kg/injection, schedule: Q01DX009 (ip), vehicle: water): 96 % of control
T/C (dose: 12.5 mg/kg/injection, schedule: Q01DX009 (ip), vehicle: water): 119 % of control
T/C (dose: 25.0 mg/kg/injection, schedule: Q01DX009 (ip), vehicle: water): 104 % of control
T/C (dose: 50.0 mg/kg/injection, schedule: Q01DX009 (ip), vehicle: water): 105 % of control

Oc1ccc2ccc3[nH]cnc3c2c1
T/C [12]: 100 % of control
T/C [13]: 105 % of control

O=C(N=C1C=CC(=NC(=O)OCc2ccccc2)C=C1)OCc1ccccc1
T/C (dose: 75.0 mg/kg/injection, schedule: Q01DX009 (ip), vehicle: Klucel (hydroxypropylcellulose) (HPC)): 98 % of control
T/C (dose: 150.0 mg/kg/injection, schedule: Q01DX009 (ip), vehicle: Klucel (hydroxypropylcellulose) (HPC)): 92 % of control
T/C (dose: 300.0 mg/kg/injection, schedule: Q01DX009 (ip), vehicle: Klucel (hydroxypropylcellulose) (HPC)): 91 % of control

CCOC(=O)C(C#N)N=O (stereo unspecified)
T/C [8]: 111 % of control
T/C (dose: 50.0 mg/kg/injection, schedule: Q04DX003 (ip), vehicle: saline): 106 % of control
T/C [16]: 113 % of control

ClC1CCC[N-]C1.ClC1CCC[N-]C1.[Cl][Pt+2]([Cl])([Cl])[Cl] (stereo unspecified)
T/C (dose: 0.78 mg/kg/injection, schedule: Q01DX009 (ip), vehicle: saline with Tween-80): 105 % of control
T/C (dose: 1.56 mg/kg/injection, schedule: Q01DX009 (ip), vehicle: saline with Tween-80): 100 % of control
T/C (dose: 3.13 mg/kg/injection, schedule: Q01DX009 (ip), vehicle: saline with Tween-80): 97 % of control
T/C (dose: 6.25 mg/kg/injection, schedule: Q01DX009 (ip), vehicle: saline with Tween-80): 106 % of control

CCCCCCOC(CN(C)C)C(Cl)(Cl)Cl (stereo unspecified)
T/C (dose: 12.5 mg/kg/injection, schedule: Q01DX009 (ip), vehicle: distilled water + Tween-80): 100 % of control
T/C (dose: 12.5 mg/kg/injection, schedule: Q01DX009 (ip), vehicle: saline with Tween-80): 101 % of control
T/C (dose: 25.0 mg/kg/injection, schedule: Q01DX009 (ip), vehicle: distilled water + Tween-80): 97 % of control
T/C [17]: 105 % of control
T/C (dose: 50.0 mg/kg/injection, schedule: Q01DX009 (ip), vehicle: distilled water + Tween-80): 94 % of control
T/C [14]: 102 % of control
T/C (dose: 100.0 mg/kg/injection, schedule: Q01DX009 (ip), vehicle: distilled water + Tween-80): 89 % of control
T/C [9]: 90 % of control
T/C [10]: 89 % of control

COc1ccc(N=C(c2ccccc2)c2ccccc2)cc1
T/C [18]: 95 % of control
T/C (dose: 200.0 mg/kg/injection, schedule: Q04DX003 (ip), vehicle: saline with Tween-80): 86 % of control
T/C (dose: 400.0 mg/kg/injection, schedule: Q04DX003 (ip), vehicle: saline with Tween-80): 90 % of control

CCCCCCCCCCCCOc1ccccn1
T/C [5]: 88 % of control
T/C [19]: 86 % of control

O=C(NNc1ccccc1)c1ccccc1
T/C [1]: 97 % of control
T/C [2]: 97 % of control
T/C [3]: 93 % of control
T/C [4]: 91 % of control

Cc1ccc([NH-])c([NH-])c1.[Cl][Pt+2][Cl]
T/C (dose: 1.25 mg/kg/injection, schedule: Q01DX009 (ip), vehicle: saline with Tween-80): 120 % of control
T/C [7]: 161 % of control

CCC(C)C(NC=O)C(=O)O (stereo unspecified)
T/C [14]: 97 % of control
T/C [9]: 95 % of control
T/C [10]: 92 % of control
T/C [11]: 91 % of control

CCN(CC)S(=O)(=O)c1ccc(OC)c(N)c1
T/C [17]: 107 % of control
T/C [14]: 100 % of control
T/C (dose: 50.0 mg/kg/injection, schedule: Q04DX003 (ip), vehicle: saline with Tween-80): 104 % of control
T/C [9]: 105 % of control
T/C [18]: 104 % of control

CC[C@H](CC[C@@H](C)[C@H]1CC[C@H]2[C@@H]3CC=C4C[C@@H](O)CC[C@]4(C)[C@H]3CC[C@]12C)C(C)C
T/C [6]: 91 % of control
T/C [5]: 109 % of control
T/C [19]: 94 % of control

Source: PubChem BioAssay AID192 (DTP/NCI, 2004)
